The structures appear in SMILES notation.

From ChEMBL document CHEMBL1122653, “Substituted (omega-aminoalkoxy) stilbene derivatives as a new class of anticonvulsants” (1984) come the findings set out here.

Assay [1] has as its system Mus musculus. The assay can be described thus: Ability to suppress PTZ (pentylenetetrazole ) induced tonic extensor convulsion in mice after oral administration at a dose 50 mg/kg. The assay is classed as functional.
The subject of assay [2] is Mus musculus. In words: Ability to suppress maximal electroshock induced tonic extensor convulsion in mice after oral administration at 50 mg/kg. In kind it is functional. (In the maximal electroshock model the usual endpoint is tonic extension of the hind limbs.)
For assay [3], the system named is Mus musculus. In words: Ability to suppress PTZ (pentylenetetrazole) induced tonic extensor convulsion in mice after oral administration at a dose 50 mg/kg. In kind it is functional.
Assay [4] relates to Mus musculus. The assay can be described thus: Ability to suppress PTZ (pentylenetetrazole) induced tonic extensor convulsion in mice after oral administration at a dose 25 mg/kg. In kind it is functional.
The test system of assay [5] is Mus musculus. In words: Ability to suppress MES (maximal electroshock ) induced tonic extensor convulsion in mice after oral administration at a dose 100 mg/kg. In kind it is functional.
Assay [6] concerns Mus musculus. The assay can be described thus: Ability to suppress MES (maximal electroshock ) induced tonic extensor convulsion in mice after oral administration of the compound. In kind it is functional.
Assay [7] deals with Mus musculus. The assay can be described thus: Ability to suppress MES (maximal electroshock) induced tonic extensor convulsion in mice after oral administration at a dose 50 mg/kg. The assay is classed as functional.
Assay [8] deals with Mus musculus. The assay can be described thus: Ability to suppress PTZ (pentylenetetrazole ) induced tonic extensor convulsion in mice after oral administration of the compound. In kind it is functional.
The test system of assay [9] is Mus musculus. The assay can be described thus: Ability to suppress PTZ (pentylenetetrazole) induced tonic extensor convulsion in mice after oral administration of the compound. The assay is classed as functional.
For assay [10], the species on record is Rattus norvegicus. In words: Muscle-relaxant action in vertical screen method. In kind it is functional.
For assay [11], the species on record is Rattus norvegicus. In words: Ability to suppress PTZ (pentylenetetrazole) induced clonic convulsions seizures in male Wistar rats. In kind it is functional.
Assay [12] can be described thus: Ratio of the dose showing muscle relaxant action in rats and the dose suppressing MES induced seizures in rats. The assay is classed as functional.
The species named for assay [13] is Rattus norvegicus. The assay can be described thus: Ability to suppress MES ( maximal electroshock ) induced seizures in male Wistar rats. In kind it is functional.
The species entered for assay [14] is Rattus norvegicus. The assay can be described thus: Ratio of the dose showing muscle relaxant action in rats and the dose suppressing MES induced seizures in rats.
Assay [15] is filed under the species Rattus norvegicus. The assay can be described thus: Ability to suppress MES (maximal electroshock) induced seizures in male Wistar rats. In kind it is functional.
For assay [16], the species on record is Rattus norvegicus. In words: Ability to suppress PTZ (convulsions seizures in male Wistar rats. The assay is classed as functional.
The species named for assay [17] is Rattus norvegicus. In words: Muscle-relaxant action in vertical screen method. In kind it is functional.

On to `CN(C)CCCCOc1ccccc1/C=C/c1cccc(F)c1`, for which the inhibition in vivo (commonly the drop in the measured response relative to a control, in per cent) at 50 mg/kg with Mus musculus [1] is 12.5%.

Turning to `CC1CCCN(CCCCOc2ccccc2/C=C/c2ccccc2)C1` (stereo not given), 50 mg/kg produced 12.5% inhibition in vivo in the assay on Mus musculus [2].

As for `CN(C)CCCOc1ccccc1/C=C/c1ccccc1`, the results for the inhibition in vivo at 50 mg/kg in the assay with Mus musculus [2] and in the assay with Mus musculus [3] were 14.2% and 87.5%, respectively.

For `CCCOC1CCCN(CCCCOc2ccccc2/C=C/c2ccccc2)C1` (stereo not given), the inhibition in vivo at 50 mg/kg with Mus musculus [2] was found to be 0%.

In the case of `CN1CCN(CCCCOc2ccccc2/C=C/c2ccccc2F)CC1`, the inhibition in vivo at 50 mg/kg in the assay on Mus musculus [2] was found to be 0%.

In the assay with Mus musculus [1], `CN(C)CCCCOc1ccccc1/C=C/c1ccccc1F` had an inhibition in vivo at 50 mg/kg of 17%.

With `CN(C)CCCCCOc1ccccc1/C=C/c1ccccc1`, the inhibition in vivo at 25 mg/kg in the assay on Mus musculus [4] worked out at 75%. Moreover, the inhibition in vivo at 100 mg/kg in the assay on Mus musculus [5] is 81%.

`OCC1CCCN(CCCCOc2ccccc2/C=C/c2ccccc2)C1` (stereo not given) gave an inhibition in vivo at 50 mg/kg in the assay on Mus musculus [2] of 12.5%.

As to `CN1CCN(CCCCOc2ccccc2/C=C/c2ccccc2)CC1.Cl.Cl`, the ED50 (commonly the midpoint of the dose-response relation) in the assay on Mus musculus [6] turned out to be 31.1 mg/kg; with Mus musculus [8], 11.1 mg/kg. In the assay on Mus musculus [7], this compound yielded an inhibition in vivo at 50 mg/kg of 0%.

On to `CCOC1CCCN(CCCCOc2ccccc2/C=C/c2ccccc2)C1.Cl` (stereo not given), for which the 50% effective dose (ED50) in the assay on Mus musculus [6] amounted to 17.5 mg/kg; with Mus musculus [9], 9.8 mg/kg.

As for `CC(=O)OC1CCCN(CCCCOc2ccccc2/C=C/c2ccccc2)C1.Cl` (stereo not given), the 50% effective dose (ED50) in the assay with Mus musculus [6] was determined as 18.7 mg/kg; in the assay with Mus musculus [9], 7.9 mg/kg.

As for `OC1CCN(CCCCOc2ccccc2/C=C/c2ccccc2)CC1`, the inhibition in vivo at 50 mg/kg in the assay with Mus musculus [2] was found to be 0%; in the assay with Mus musculus [1], 50%.

Turning to `COC1CCCN(CCCCOc2ccccc2/C=C/c2ccccc2)C1.Cl` (stereo not given), the results for the median effective dose (ED50) in the assay on Mus musculus [6] and in the assay on Mus musculus [9] were 12.6 mg/kg and 9.3 mg/kg, respectively.

`COc1cccc(OCCCCN2CCN(C)CC2)c1/C=C/c1ccccc1.Cl.Cl` came in with an inhibition in vivo at 50 mg/kg in the assay on Mus musculus [2] of 42.9%. Also, the median effective dose (ED50) with Mus musculus [8] was found to be 50 mg/kg.

Turning to `CN1CCN(CCCCOc2ccccc2/C=C/c2ccc(F)cc2)CC1.Cl.Cl`, the figures for the median effective dose (ED50) in the assay on Mus musculus [6] and in the assay with Mus musculus [8] were 39 mg/kg and 17.7 mg/kg, respectively.

For the compound `Cl.OC1CCCN(CCCCOc2ccccc2/C=C/c2ccccc2)C1` (stereo not given), the median effective dose (ED50) in the assay listed under Rattus norvegicus [10] is more than 300 mg/kg; in the assay on Mus musculus [6], 20 mg/kg; in the assay listed under Rattus norvegicus [11], 248 mg/kg; in the assay filed under Rattus norvegicus [13], 12.5 mg/kg. In [12], the Therapeutic index is more than 24.

With `Cl.OC1CCCN(CCCCOc2ccccc2/C=C/c2ccc(F)cc2)C1` (stereo not given), the ED50 was 21.9 mg/kg in the assay with Mus musculus [6] and 8.8 mg/kg in the assay on Mus musculus [9].

`Cl.OC1CCCN(CCCCOc2ccccc2/C=C/c2cccc(F)c2)C1` (stereo not given) came in with an ED50 with Mus musculus [6] of 38 mg/kg.

In turn, `O=C(O)C1CCCN(CCCCOc2ccccc2/C=C/c2ccccc2)C1` (stereo not given) showed an inhibition in vivo at 50 mg/kg in the assay with Mus musculus [2] of 12.5%.

Compound `COC(=O)C1CCCN(CCCCOc2ccccc2/C=C/c2ccccc2)C1` (stereo not given) showed an inhibition in vivo at 50 mg/kg with Mus musculus [2] of 0%.

Regarding `C(=C\c1ccccc1OCCCCN1CCOCC1)/c1ccccc1`, the inhibition in vivo at 50 mg/kg with Mus musculus [2] amounted to 14.3%; in the assay with Mus musculus [1], 87.5%.

For the compound `CNCCCCOc1ccccc1/C=C/c1ccccc1.Cl`, in the assay with Mus musculus [6], the 50% effect level (ED50) was put at a dose of 118 mg/kg.

Compound `Cc1ccccc1/C=C/c1ccccc1OCCCCN(C)C` returned an inhibition in vivo at 50 mg/kg in the assay on Mus musculus [1] of 16.7%.

In the case of `COc1ccccc1/C=C/c1ccccc1OCCCCN(C)C`, the inhibition in vivo at 50 mg/kg with Mus musculus [2] worked out at 0%; in the assay with Mus musculus [1], 62.5%.

Consider `C(=C\c1ccccc1OCCCCN1CCCCC1)/c1ccccc1`, for which the figures for the inhibition in vivo at 50 mg/kg in the assay on Mus musculus [2] and with Mus musculus [3] were 42.9% and 100%, respectively.

For the compound `CCCN(CCC)CCCCOc1ccccc1/C=C/c1ccccc1`, 50 mg/kg produced 0% inhibition in vivo in the assay with Mus musculus [2].

`C(=C\c1ccccc1OCCCCN1CCCC1)/c1ccccc1`: the inhibition in vivo at 50 mg/kg in the assay with Mus musculus [2] was 42.9%; in the assay with Mus musculus [1], 87.5%.

`CCN(CC)CCCCOc1ccccc1/C=C/c1ccccc1.Cl`: the ED50 was found to be 82 mg/kg in the assay on Mus musculus [6] and 11.5 mg/kg in the assay on Mus musculus [8].

As to `CN(C)CCCCOc1ccccc1/C=C/c1ccc(F)cc1.Cl`, it took a dose of 15.4 mg/kg to reach the 50% effect level in the assay on Mus musculus [8] (ED50). In the assay on Mus musculus [5], this compound displayed an inhibition in vivo at 100 mg/kg of 14.3%.

Compound `COC1CCCN(CCCCOc2ccccc2/C=C/c2ccc(F)cc2)C1` (stereo not given) showed an inhibition in vivo at 50 mg/kg in the assay on Mus musculus [2] of 12.5%.

Regarding `CN(C)CCN(C)CCCCOc1ccccc1/C=C/c1ccccc1`, at 50 mg/kg the inhibition in vivo in the assay on Mus musculus [2] was 0%.

In the case of `CC(=O)N1CCN(CCCCOc2ccccc2/C=C/c2ccccc2)CC1`, the inhibition in vivo at 50 mg/kg in the assay on Mus musculus [2] is 0%; in the assay on Mus musculus [1], 12.5%.

Turning to `C(=C\c1ccccc1OCCCCN1CCNCC1)/c1ccccc1`, the inhibition in vivo at 50 mg/kg in the assay with Mus musculus [2] and with Mus musculus [1] was 0% throughout.

For the compound `CN(C)CCCCOc1ccc(/C=C/c2ccccc2)cc1`, in the assay with Mus musculus [2], the inhibition in vivo at 50 mg/kg was 12.5%.

Turning to `CN(C)CCOc1ccccc1/C=C/c1ccccc1`, in the assay on Mus musculus [3], the inhibition in vivo at 50 mg/kg stood at 75%.

Take `CCCN1CCN(CCCCOc2ccccc2/C=C/c2ccccc2)CC1`: the inhibition in vivo at 50 mg/kg stood at 42.9% with Mus musculus [2] and 87.5% with Mus musculus [1].

For `CN(C)CCCCOc1cccc(/C=C/c2ccccc2)c1`, the inhibition in vivo at 50 mg/kg in the assay with Mus musculus [2] was determined as 0%.

Compound `CCN1CCN(CCCCOc2ccccc2/C=C/c2ccccc2)CC1` came in with an inhibition in vivo at 50 mg/kg with Mus musculus [2] of 33.3%.

In the case of `CN(C)CCCCOc1ccccc1/C=C/c1cccc(Cl)c1`, the inhibition in vivo at 50 mg/kg came to 14.3% in the assay with Mus musculus [2] and 23.9% in the assay with Mus musculus [1].

Turning to `NC(=O)C1CCCN(CCCCOc2ccccc2/C=C/c2ccccc2)C1` (stereo not given), the inhibition in vivo at 50 mg/kg with Mus musculus [2] came out at 0%.

For `CN(C)CCCCOc1ccccc1/C=C/c1ccccc1Cl`, the values for the inhibition in vivo at 50 mg/kg with Mus musculus [2] and with Mus musculus [1] were 14.3% and 50%, respectively.

Take `CN(C)CCCCOc1ccccc1/C=C/c1ccc(Cl)cc1`: the inhibition in vivo at 50 mg/kg with Mus musculus [2] worked out at 0%; in the assay on Mus musculus [1], 62.5%.

On to `CN1CCN(CCCCOc2ccccc2/C=C/c2ccc(Cl)c(Cl)c2)CC1`, for which the inhibition in vivo at 50 mg/kg in the assay on Mus musculus [2] and in the assay on Mus musculus [1] was 0% throughout.

Consider `CN1CCN(CCCCOc2ccccc2/C=C/c2cccc(Cl)c2)CC1`, for which the inhibition in vivo at 50 mg/kg turned out to be 0% in the assay with Mus musculus [2] and 50% in the assay on Mus musculus [1].

Take `OC1CCCN(CCCCOc2ccc(Cl)cc2/C=C/c2ccccc2)C1` (stereo not given): in the assay with Mus musculus [2], 50 mg/kg produced 12.5% inhibition in vivo.

For the compound `COc1cccc(/C=C/c2ccccc2)c1OCCCCN(C)C`, the inhibition in vivo at 50 mg/kg in the assay on Mus musculus [2] came to 57.1%. In the assay with Mus musculus [8], it took a dose of 21.6 mg/kg to reach the 50% effect level (ED50).

The compound `OC1CCCN(CCCCOc2ccccc2/C=C/c2cccc(Cl)c2)C1` (stereo not given) came in with an inhibition in vivo at 50 mg/kg with Mus musculus [2] of 12.5%.

`NC(=O)N1c2ccccc2C=Cc2ccccc21` [CARBAMAZEPINE]: the 50% effective dose (ED50) in the assay listed under Rattus norvegicus [10] amounted to 120 mg/kg; in the assay listed under Rattus norvegicus [11], 300 mg/kg; in the assay listed under Rattus norvegicus [15], 32 mg/kg. For the same compound, the Therapeutic index in the assay filed under Rattus norvegicus [14] worked out at 3.75.

Take `O=C1NC(=O)C(c2ccccc2)(c2ccccc2)N1` [PHENYTOIN]: the ED50 in the assay filed under Rattus norvegicus [16] is 250 mg/kg; in the assay listed under Rattus norvegicus [17], more than 250 mg/kg; in the assay filed under Rattus norvegicus [13], 40 mg/kg. Besides, the Therapeutic index in [12] is reported as more than 6.25.
